Reference: ChEMBL document CHEMBL1144945, “Development of progesterone receptor antagonists from 1,2-dihydrochromeno[3,4-f]quinoline agonist pharmacophore” (Bioorg Med Chem Lett, 2003)
Active and inactive are the calls of the source.

Tests used:
[1] = biological target: T1, Mineralocorticoid receptor (Homo sapiens, UniProt P08235); assay: Inhibition of antagonist activity towards mineralocorticoid receptor (hMR); Not active; assay type: functional
T1 sequence (P08235 whole entry): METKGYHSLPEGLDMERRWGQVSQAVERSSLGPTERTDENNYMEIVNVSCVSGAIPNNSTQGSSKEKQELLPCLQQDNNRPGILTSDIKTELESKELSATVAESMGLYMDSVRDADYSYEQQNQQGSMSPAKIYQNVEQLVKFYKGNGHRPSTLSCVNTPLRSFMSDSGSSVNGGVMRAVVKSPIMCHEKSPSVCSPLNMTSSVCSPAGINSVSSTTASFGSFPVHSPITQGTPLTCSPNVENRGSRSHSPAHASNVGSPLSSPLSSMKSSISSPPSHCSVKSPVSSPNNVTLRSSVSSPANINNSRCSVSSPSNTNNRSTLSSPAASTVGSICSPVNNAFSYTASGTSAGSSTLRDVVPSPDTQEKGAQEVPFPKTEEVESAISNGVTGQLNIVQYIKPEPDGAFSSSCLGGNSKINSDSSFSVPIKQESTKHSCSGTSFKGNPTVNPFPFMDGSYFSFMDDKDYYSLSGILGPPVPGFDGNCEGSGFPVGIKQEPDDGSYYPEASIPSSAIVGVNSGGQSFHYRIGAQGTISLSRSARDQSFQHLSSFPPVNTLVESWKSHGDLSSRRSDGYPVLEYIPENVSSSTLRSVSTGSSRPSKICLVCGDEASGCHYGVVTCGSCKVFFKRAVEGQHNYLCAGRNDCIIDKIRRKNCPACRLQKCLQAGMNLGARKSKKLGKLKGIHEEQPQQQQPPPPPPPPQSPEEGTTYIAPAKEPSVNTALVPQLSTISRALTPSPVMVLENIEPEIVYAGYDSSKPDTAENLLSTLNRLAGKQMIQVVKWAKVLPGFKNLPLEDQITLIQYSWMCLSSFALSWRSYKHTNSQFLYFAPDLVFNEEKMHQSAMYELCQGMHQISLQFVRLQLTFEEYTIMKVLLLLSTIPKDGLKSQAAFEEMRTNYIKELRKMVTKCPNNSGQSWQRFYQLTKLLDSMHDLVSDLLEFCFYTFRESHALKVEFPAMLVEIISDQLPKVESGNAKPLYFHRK

[2] = biological target: T2, Mineralocorticoid receptor (Homo sapiens) (UniProt P08235); assay: Antagonist efficacy for mineralocorticoid receptor (hMR); Not active; assay type: functional
T2 sequence (whole entry): T1 sequence (P08235 whole entry)

Androgen receptor = biological target: T3, Androgen receptor (Homo sapiens, UniProt P10275)
T3 sequence (P10275 whole entry): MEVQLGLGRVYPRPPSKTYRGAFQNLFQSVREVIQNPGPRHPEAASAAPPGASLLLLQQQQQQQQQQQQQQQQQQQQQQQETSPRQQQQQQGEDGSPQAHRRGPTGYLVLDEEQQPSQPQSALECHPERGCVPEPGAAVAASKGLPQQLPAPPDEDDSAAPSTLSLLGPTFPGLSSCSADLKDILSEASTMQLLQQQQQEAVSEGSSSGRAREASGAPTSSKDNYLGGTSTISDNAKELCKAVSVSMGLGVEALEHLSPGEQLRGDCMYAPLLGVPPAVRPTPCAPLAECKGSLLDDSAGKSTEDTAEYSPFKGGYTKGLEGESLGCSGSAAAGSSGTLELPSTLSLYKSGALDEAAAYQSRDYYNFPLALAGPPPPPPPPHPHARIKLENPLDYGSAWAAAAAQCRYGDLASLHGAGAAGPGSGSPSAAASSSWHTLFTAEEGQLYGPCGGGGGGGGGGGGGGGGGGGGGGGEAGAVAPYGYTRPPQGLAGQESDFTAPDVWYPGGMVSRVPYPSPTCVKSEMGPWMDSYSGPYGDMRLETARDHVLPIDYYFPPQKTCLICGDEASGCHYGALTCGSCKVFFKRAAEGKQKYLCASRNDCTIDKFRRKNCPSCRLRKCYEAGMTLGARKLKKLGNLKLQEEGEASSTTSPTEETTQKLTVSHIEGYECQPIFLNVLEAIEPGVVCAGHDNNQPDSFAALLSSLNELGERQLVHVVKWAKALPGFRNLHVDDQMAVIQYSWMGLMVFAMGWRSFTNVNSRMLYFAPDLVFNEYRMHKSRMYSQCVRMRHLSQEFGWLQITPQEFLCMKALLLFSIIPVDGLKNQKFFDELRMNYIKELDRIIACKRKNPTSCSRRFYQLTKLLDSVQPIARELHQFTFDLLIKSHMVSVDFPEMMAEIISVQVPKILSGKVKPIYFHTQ
Description: Inhibition of antagonist activity towards Androgen receptor

[3] = biological target: T4, Glucocorticoid receptor (Homo sapiens) (UniProt P04150); assay: Antagonist efficacy for glucocorticoid receptor; not active; assay type: functional
T4 sequence (whole entry): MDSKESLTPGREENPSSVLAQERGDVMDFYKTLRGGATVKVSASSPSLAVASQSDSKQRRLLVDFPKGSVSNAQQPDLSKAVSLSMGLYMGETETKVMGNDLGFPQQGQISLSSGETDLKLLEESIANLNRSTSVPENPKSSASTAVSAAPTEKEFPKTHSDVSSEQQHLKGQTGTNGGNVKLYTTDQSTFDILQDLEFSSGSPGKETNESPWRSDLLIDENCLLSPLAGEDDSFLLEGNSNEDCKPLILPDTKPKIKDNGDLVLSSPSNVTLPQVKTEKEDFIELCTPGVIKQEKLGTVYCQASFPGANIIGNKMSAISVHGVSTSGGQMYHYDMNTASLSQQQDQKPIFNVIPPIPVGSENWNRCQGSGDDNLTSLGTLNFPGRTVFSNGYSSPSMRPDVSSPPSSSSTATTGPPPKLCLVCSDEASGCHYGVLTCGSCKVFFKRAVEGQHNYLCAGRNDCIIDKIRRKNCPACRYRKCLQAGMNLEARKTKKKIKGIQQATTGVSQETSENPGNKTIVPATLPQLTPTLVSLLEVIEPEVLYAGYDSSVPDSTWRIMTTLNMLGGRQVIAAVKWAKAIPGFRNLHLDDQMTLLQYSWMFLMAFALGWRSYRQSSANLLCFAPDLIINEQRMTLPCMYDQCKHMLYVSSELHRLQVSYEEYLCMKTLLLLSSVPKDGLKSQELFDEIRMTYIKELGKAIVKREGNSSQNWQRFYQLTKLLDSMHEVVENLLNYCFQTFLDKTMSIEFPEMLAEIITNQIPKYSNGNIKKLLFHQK

Glucocorticoid receptor [4] = biological target: T5, Glucocorticoid receptor (Homo sapiens, UniProt P04150); assay: Inhibition of antagonist activity towards glucocorticoid receptor; not active; assay type: functional
T5 sequence (P04150 whole entry): T4 sequence (whole entry)

[5] = biological target: Estrogen receptor (Homo sapiens) (UniProt Q92731+P03372); assay: Antagonist efficacy for Estrogen receptor; Not active; assay type: functional
Progesterone receptor [6] = biological target: T6, Progesterone receptor (Homo sapiens, UniProt P06401)
T6 sequence (P06401 whole entry): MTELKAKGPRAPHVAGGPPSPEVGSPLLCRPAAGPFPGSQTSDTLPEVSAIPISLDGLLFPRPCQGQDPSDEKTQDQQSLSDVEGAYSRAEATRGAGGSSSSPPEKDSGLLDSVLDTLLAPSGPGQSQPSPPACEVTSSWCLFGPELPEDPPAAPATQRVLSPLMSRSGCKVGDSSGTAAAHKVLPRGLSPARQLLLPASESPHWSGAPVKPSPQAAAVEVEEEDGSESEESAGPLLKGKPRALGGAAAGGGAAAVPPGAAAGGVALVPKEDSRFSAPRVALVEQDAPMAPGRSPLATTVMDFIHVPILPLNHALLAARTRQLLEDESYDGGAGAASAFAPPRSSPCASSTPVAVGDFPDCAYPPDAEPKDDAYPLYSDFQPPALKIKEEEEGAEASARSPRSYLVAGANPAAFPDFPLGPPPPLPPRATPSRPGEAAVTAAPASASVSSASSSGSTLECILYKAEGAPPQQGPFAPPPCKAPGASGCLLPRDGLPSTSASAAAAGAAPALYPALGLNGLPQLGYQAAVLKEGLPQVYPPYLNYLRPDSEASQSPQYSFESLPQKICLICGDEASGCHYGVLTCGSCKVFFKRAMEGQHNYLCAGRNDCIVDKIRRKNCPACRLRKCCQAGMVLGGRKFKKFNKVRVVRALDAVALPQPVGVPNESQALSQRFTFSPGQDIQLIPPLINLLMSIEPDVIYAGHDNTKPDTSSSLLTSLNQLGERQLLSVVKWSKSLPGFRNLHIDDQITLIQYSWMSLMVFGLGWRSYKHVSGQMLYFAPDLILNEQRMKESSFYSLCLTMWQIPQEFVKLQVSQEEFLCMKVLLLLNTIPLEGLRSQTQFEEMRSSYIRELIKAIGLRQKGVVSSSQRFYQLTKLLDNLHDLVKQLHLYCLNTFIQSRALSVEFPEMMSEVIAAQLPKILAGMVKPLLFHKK

Progesterone receptor [7] = biological target: T6, Progesterone receptor; remark: listed apart in the source
Description: Inhibition of human progesterone receptor activation in T47D human breast cancer cell.

Progesterone receptor [8] = biological target: T6, Progesterone receptor; remark: listed apart in the source
Description: Binding affinity at human progesterone receptor.

Progesterone receptor [9] = biological target: T6, Progesterone receptor; remark: listed apart in the source
Description: Antagonistic activity at human progesterone receptor in CV-1 cells.

[10] = biological target: T7, Progesterone receptor (Homo sapiens) (UniProt P06401); assay: Agonist efficacy for human progesterone receptor in T47D human breast cancer cell; not active (<20% efficacy and/or >10 mM potency); assay type: functional, cell-based
T7 sequence (whole entry): T6 sequence (P06401 whole entry)

Progesterone receptor [11] = biological target: T6, Progesterone receptor; assay: Effective concentration for human progesterone receptor in T47D human breast cancer cell; not active (<20% efficacy and/or >10 mM potency); conditions: cancer cell lines
[12] = biological target: T1, Mineralocorticoid receptor; assay: Inhibition of antagonist activity towards mineralocorticoid receptor (hMR); assay type: functional
[13] = biological target: T2, Mineralocorticoid receptor (Homo sapiens); assay: Antagonist efficacy for mineralocorticoid receptor (hMR); assay type: functional
[14] = biological target: T7, Progesterone receptor (Homo sapiens); assay: Effective concentration against human progesterone receptor in T47D human breast cancer cell; not active (<20% efficacy and/or >10 mM potency); assay type: cell-based; conditions: Cancer cell lines
[15] = biological target: T7, Progesterone receptor (Homo sapiens); assay: Agonist efficacy for human progesterone in T47D human breast cancer cell; assay type: functional, cell-based
Progesterone receptor [16] = biological target: T6, Progesterone receptor; assay: Binding towards human progesterone receptor
Progesterone receptor [17] = biological target: T6, Progesterone receptor; assay: Inhibition of human progesterone in T47D human breast cancer cell; assay type: cell-based
[18] = biological target: T7, Progesterone receptor (Homo sapiens); assay: Antagonist efficacy for human progesterone in CV-1 cells; assay type: functional, cell-based
[19] = biological target: T7, Progesterone receptor (Homo sapiens); assay: Antagonist efficacy for human progesterone in T47D human breast cancer cell; assay type: functional, cell-based
Progesterone receptor [20] = biological target: T6, Progesterone receptor; assay: Effective concentration for antagonistic activity towards human progesterone in CV-1 cells; assay type: functional, cell-based
Progesterone receptor [21] = biological target: T6, Progesterone receptor; assay: Effective concentration for human progesterone in T47D human breast cancer cell; assay type: cell-based, Cancer cell lines
Glucocorticoid receptor [22] = biological target: T5, Glucocorticoid receptor; assay: Inhibition of antagonist activity towards glucocorticoid receptor; assay type: functional

Row | SMILES | IC50 (Androgen receptor) [nM] | Efficacy [5] | EC50 (Progesterone receptor [6]) [nM] | IC50 (Progesterone receptor [7]) [nM] | Ki (Progesterone receptor [8]) [nM] | EC50 (Progesterone receptor [9]) [nM] | further results
1 | CC1=CC(C)(C)Nc2ccc3c(c21)COc1ccc(Cl)cc1-3 | 788 | inactive | – | – | – | – | IC50 [1]: Not Active; Efficacy [2]: inactive; Efficacy [3]: inactive; IC50 (Glucocorticoid receptor [4]): Not Active
2 | CC1=CC(C)(C)Nc2ccc3c(c21)COc1c(F)cccc1-3 | – | – | > 1000 | 368 | 248 | 118 | –
3 | COc1ccc2c(c1)-c1ccc3c(c1CO2)C(C)=CC(C)(C)N3 | – | – | > 1000 | 187 | 86 | 170 | –
4 | CC1=CC(C)(C)Nc2ccc3c(c21)COc1ccc(-c2ccccc2)cc1-3 | – | – | – | 811 | > 1000 | 2030 | Efficacy [10]: inactive; EC50 (Progesterone receptor [11]): Not Active
5 | CC1=CC(C)(C)Nc2ccc3c(c21)COc1ccc(F)cc1-3 | 1250 | inactive | – | – | – | – | Efficacy [3]: inactive; IC50 (Glucocorticoid receptor [4]): Not Active; IC50 [12]: 3160 nM; Efficacy [13]: 30%
6 | CC1CC(C)(C)Nc2ccc3c(c21)COc1c-3cc(F)cc1[N+](=O)[O-] (stereo unspecified) | – | – | – | 483 | 370 | 781 | Activity [10]: inactive; Activity [14]: inactive
7 | COc1ccc2c(c1)OCc1c-2ccc2c1C(C)=CC(C)(C)N2 | – | – | – | – | – | – | Efficacy [15]: 24%; Ki (Progesterone receptor [16]): 357 nM; IC50 (Progesterone receptor [17]): 514 nM; Efficacy [18]: 85%; Efficacy [19]: 83%; EC50 (Progesterone receptor [20]): 193 nM; EC50 (Progesterone receptor [21]): > 1000 nM
8 | CC1=CC(C)(C)Nc2ccc3c(c21)COc1ccc(Br)cc1-3 | 395 | inactive | 552 | 485 | 15 | 45 | IC50 [1]: Not Active; Efficacy [2]: inactive; IC50 (Glucocorticoid receptor [22]): 1930 nM
